The values that follow come from US9771351B2, “Wnt signaling inhibitor” (KYOWA HAKKO KIRIN CO., LTD., priority 2013, dated 2017).

Structures are written as SMILES. Where two headings read alike, the source gives them in different places.

The subject of assay [1] is T-cell factor (TCF)-luciferase reporter using Wnt pathway as index. In words: Inhibitory activity against TCF-luciferase reporter using Wnt pathway as index (DLD-1/TCF-Luc cells). In kind it is cell-based, human. The following applies: Homo sapiens, read-out: Inhibition ratio (%) at 1 μmol/L. The method, then: Test Example 1: Inhibitory Activity Against T-Cell Factor (TCF)-Luciferase Reporter Using Wnt Pathway as Index
The inhibitory activity of test compounds against Wnt pathway was evaluated by the following method.
A human colorectal adenocarcinoma cell line DLD-1 (Japanese Collection of Research Bioresources) was cultured in RPMI-1640 medium (Gibco/Life Technologies, Inc.) containing 10% fetal bovine serum (Gibco/Life Technologies, Inc.), 10 mmol/L of a 4-(2-hydroxyethyl)-1-piperazineethanesulfonic acid (HEPES) buffer solution (Gibco/Life Technologies, Inc.), 1 mmol/L of a sodium pyruvate solution (Gibco/Life Technologies, Inc.), 4.5 g/L of a D-(+)-glucose solution (Sigma-Aldrich, Inc.), 100 units/mL penicillin (Gibco/Life Technologies, Inc.) and 100 μg/mL of streptomycin (Gibco/Life Technologies, Inc.) under the conditions of 37° C. and 5% carbon dioxide gas. The DLD-1 cells were seeded in a 10 cm dish, and 20 μg of a luciferase gene plasmid pGL4.27 having a TCF responsive sequence inserted therein was transfected into the cells using 10 μL of Attractene (Qiagen, Inc.) according to the protocol attached to the product. A stably expressing cell line (DLD-1/TCF-Luc) was selected using […] of hygromycin B (Wako Pure Chemical Industries Ltd.). The DLD-1/TCF-Luc cells were detached with trypsin and seeded in a 384-well plate, and a test compound was added at different concentrations. After 18 hours, the luciferase activity was measured using Steady-Glo™ Luciferase Assay System (Promega, Inc.).
The inhibition ratio was obtained according to the following formula 1. The inhibition ratio (%) of the compound of the present invention at 1 μmol/L against the TCF-luciferase reporter using the Wnt pathway as an index is shown in Table 6. [Math. 1] Inhibition ratio (%)=100−{(luciferase activity when test compound was added)−(luciferase activity of blank)}/{(luciferase activity of control)−(luciferase activity of blank)}×100 Formula 1

Assay [2] concerns the target T1, tankyrase-2 (Homo sapiens, UniProt Q9H2K2).
T1 construct: purchased BPS Bioscience, Inc. 80566
T1 sequence (Q9H2K2 1-1166): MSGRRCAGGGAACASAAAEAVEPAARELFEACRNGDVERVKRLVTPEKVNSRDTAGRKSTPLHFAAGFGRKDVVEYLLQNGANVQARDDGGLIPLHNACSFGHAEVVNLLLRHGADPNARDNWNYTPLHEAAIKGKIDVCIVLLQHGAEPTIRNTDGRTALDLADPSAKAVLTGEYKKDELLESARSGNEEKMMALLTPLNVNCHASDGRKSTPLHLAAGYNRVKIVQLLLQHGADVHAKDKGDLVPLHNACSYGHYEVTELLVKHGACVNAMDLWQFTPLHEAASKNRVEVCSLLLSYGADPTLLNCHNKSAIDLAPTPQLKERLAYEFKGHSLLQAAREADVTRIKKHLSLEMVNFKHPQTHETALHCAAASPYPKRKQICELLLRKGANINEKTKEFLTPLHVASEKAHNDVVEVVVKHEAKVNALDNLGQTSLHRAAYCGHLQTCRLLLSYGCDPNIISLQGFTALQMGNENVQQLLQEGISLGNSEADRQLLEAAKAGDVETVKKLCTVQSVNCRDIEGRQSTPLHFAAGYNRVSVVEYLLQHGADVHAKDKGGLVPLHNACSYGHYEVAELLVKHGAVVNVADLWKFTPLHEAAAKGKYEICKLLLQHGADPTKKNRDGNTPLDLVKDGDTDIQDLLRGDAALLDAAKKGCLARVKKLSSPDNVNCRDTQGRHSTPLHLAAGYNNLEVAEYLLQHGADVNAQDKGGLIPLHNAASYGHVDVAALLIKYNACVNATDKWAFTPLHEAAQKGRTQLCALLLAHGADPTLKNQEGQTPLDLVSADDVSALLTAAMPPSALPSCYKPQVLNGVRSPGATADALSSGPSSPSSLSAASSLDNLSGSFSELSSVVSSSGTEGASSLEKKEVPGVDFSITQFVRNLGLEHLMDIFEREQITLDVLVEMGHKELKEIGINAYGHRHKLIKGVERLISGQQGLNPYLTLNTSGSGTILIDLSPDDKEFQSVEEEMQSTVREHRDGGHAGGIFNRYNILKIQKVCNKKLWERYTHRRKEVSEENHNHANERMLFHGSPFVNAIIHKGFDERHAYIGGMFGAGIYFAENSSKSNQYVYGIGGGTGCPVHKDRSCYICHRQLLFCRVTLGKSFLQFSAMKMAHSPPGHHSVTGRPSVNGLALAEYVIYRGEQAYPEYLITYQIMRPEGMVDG
In words: Tankyrase-2 enzyme inhibition test (Tankyrase-2 Chemiluminescent Assay Kit). In kind it is biochemical. Particulars: autoribosylation of GST-tankyrase-2 fusion protein, chemiluminescence. As for the experimental part:
Test Example 2: Tankyrase-2 Enzyme Inhibition Test
The enzyme activity of tankyrase-2 was evaluated using Tankyrase-2 Chemiluminescent Assay Kit (BPS Bioscience, Inc., Catalog No. 80566). The Tankyrase-2 Chemiluminescent Assay Kit is a kit for evaluating the enzyme activity of tankyrase-2 using autoribosylation of glutathione-S-transferase (GST)-tankyrase-2 fusion protein as an index. All the experimental materials except for PBS (PBST) buffer containing phosphate-buffered saline (PBS) and 0.05% Tween 20 are all included in the kit. The GST-tankyrase-2 enzyme diluted with 50 μL of 1× tankyrase buffer was added to the wells of a 96-well plate coated with glutathione. After the plate was left to stand overnight at 4° C., the plate was washed 3 times with the PBST buffer. 150 μL of blocking buffer was added thereto, and the plate was left to stand at room temperature for 30 minutes to block the wells. The plate was washed 3 times with the PBST buffer. Before the ribosylation reaction, an assay mixture containing a biotinylated substrate and a test compound diluted with 1× tankyrase buffer were mixed, whereby a reaction mixture was prepared. In order to start the ribosylation reaction, 50 μL of the reaction mixture was added to the wells. In a blank well, 1× tankyrase buffer was added in place of the reaction mixture containing a biotinylated substrate. The plate was left to stand at 30° C. for 1 hour. After the reaction, the plate was washed 3 times with the PBST buffer. Streptavidin-horseradish peroxidase (HRP) was diluted to 50-fold with the blocking buffer. The diluted streptavidin-HRP was added to the wells, and the plate was left to stand at room temperature for 30 minutes. The plate was washed 3 times with the PBST buffer. Immediately before use, 50 μL of the HRP chemiluminescent substrate A and 50 μL of the HRP chemiluminescent substrate B were mixed and 100 μL of the resulting mixture was added to the wells. The chemiluminescence was measured using a chemiluminescence measuring apparatus. The inhibition ratio was obtained according to the following formula 2. [Math. 2] Inhibition ratio (%)=100−{(chemiluminescence intensity when test compound was added)−(chemiluminescence intensity of blank)}/{(chemiluminescence intensity of control)−(chemiluminescence intensity of blank)}×100 Formula 2

The mark [3] stands for this setting: 1 μmol/L, DLD-1/TCF-Luc cells, luciferase activity after 18 hours.

For `CC(=O)N1CCc2ncnc(N3CCC(CN4Cc5ccccc5N(c5ccc(F)c(C#N)c5)C4=O)CC3)c2C1` [Compound 44, 5-(3-{[1-(6-Acetyl-5,6,7,8-tetrahydropyrido[4,3-d]pyrimidin-4-yl)piperidin-4-yl]methyl}-2-oxo-3,4-dihydroquinazolin-1(2H)-yl)-2-fluorobenzonitrile], the inhibition at 1 µM in assay [1] (DLD-1, 18 h) amounted to 82%. The “Inhibition ratio (%) at 1 μmol/L” value in assay [2] amounted to 93%.

For the compound `CC(=O)Nc1ccc2ncnc(N3CCC(CN4Cc5cccnc5N(c5ccnc(C#N)c5)C4=O)CC3)c2c1` [Compound 50, N-[4-(4-{[1-(2-Cyanopyridin-4-yl)-2-oxo-1,2-dihydropyrido[2,3-d]pyrimidin-3(4H)-yl]methyl}piperidin-1-yl)quinazolin-6-yl]acetamide], in assay [1] (setting [3]), the inhibition at 1 µM was 87%. Also, the “Inhibition ratio (%) at 1 μmol/L” value in assay [2] came to 82%.

For the compound `COc1cc2ncnc(N3CCC(CN4Cc5ccccc5N(c5cccc([N+](=O)[O-])c5)C4=O)CC3)c2cc1OC` [Compound 8, 3-{[1-(6,7-Dimethoxyquinazolin-4-yl)piperidin-4-yl]methyl}-1-(3-nitrophenyl)-3,4-dihydroquinazolin-2(1H)-one], in assay [1] (DLD-1, 18 h), the inhibition at 1 µM was found to be 73%. Besides, the “Inhibition ratio (%) at 1 μmol/L” value in assay [2] was found to be 90%.

For `N#Cc1cc(N2C(=O)N(CC3CCN(c4nccc5nc[nH]c(=O)c45)CC3)Cc3cccnc32)ccc1F` [Compound 47, 2-Fluoro-5-(2-oxo-3-{[1-(4-oxo-3,4-dihydropyrido[4,3-d]pyrimidin-5-yl)piperidin-4-yl]methyl}-3,4-dihydropyrido[2,3-d]pyrimidin-1(2H)-yl)benzonitrile], the inhibition at 1 µM in assay [1] (setting [3]) came to 82%. Also, in assay [2], the “Inhibition ratio (%) at 1 μmol/L” value worked out at 80%.

`N#Cc1cccc(N2C(=O)N(CC3CCN(c4ncnc5cc(C(=O)O)ccc45)CC3)Cc3ccccc32)c1` [Compound 25, 4-(4-{[1-(3-Cyanophenyl)-2-oxo-1,2-dihydroquinazolin-3(4H)-yl]methyl}piperidin-1-yl)quinazoline-7-carboxylic acid]: the inhibition at 1 µM in assay [1] (DLD-1, 18 h) is 86%. The “Inhibition ratio (%) at 1 μmol/L” value in assay [2] stood at 81%.

Take `N#Cc1cc(N2C(=O)N(CC3CCN(c4ncnc5c4NC(=O)CO5)CC3)Cc3ccccc32)ccn1` [Compound 35, 4-(2-Oxo-3-{[1-(6-oxo-6,7-dihydro-5H-pyrimido[4,5-b][1,4]oxazin-4-yl)piperidin-4-yl]methyl}-3,4-dihydroquinazolin-1(2H)-yl)picolinonitrile]: the inhibition at 1 µM in assay [1] (DLD-1, 18 h) is 79%. The “Inhibition ratio (%) at 1 μmol/L” value in assay [2] is reported as 88%.

In the case of `COc1cc2ncnc(N3CCC(CN4Cc5ccccc5N(CC5CCCO5)C4=O)CC3)c2cc1OC` (centres unmarked) [Compound 2, 3-{[1-(6,7-Dimethoxyquinazolin-4-yl)piperidin-4-yl]methyl}-1-[(tetrahydrofuran-2-yl)methyl]-3,4-dihydroquinazolin-2(1H)-one], in assay [1] (setting [3]), the inhibition at 1 µM stood at 87%. In addition, in assay [2], the “Inhibition ratio (%) at 1 μmol/L” value was found to be 91%.

For `COc1cncnc1N1CCC(CN2Cc3ccccc3N(c3ccnc(C#N)c3)C2=O)CC1` [Compound 32, 4-(3-{[1-(5-Methoxypyrimidin-4-yl)piperidin-4-yl]methyl}-2-oxo-3,4-dihydroquinazolin-1(2H)-yl)picolinonitrile], the inhibition at 1 µM in assay [1] (DLD-1, 18 h) came to 76%. Besides, the “Inhibition ratio (%) at 1 μmol/L” value in assay [2] came out at 94%.

On to `N#Cc1cc(N2C(=O)N(CC3CCN(c4ncnc5cc(N6CCOCC6)ccc45)CC3)Cc3ccccc32)ccn1` [Compound 37, 4-(3-{[1-(7-Morpholinoquinazolin-4-yl)piperidin-4-yl]methyl}-2-oxo-3,4-dihydroquinazolin-1(2H)-yl)picolinonitrile], for which, in assay [1] (DLD-1, 18 h), the inhibition at 1 µM was 82%. In assay [2], the “Inhibition ratio (%) at 1 μmol/L” value was determined as 87%.

As to `N#Cc1cc(N2C(=O)N(CC3CCN(c4ncnc5cc(N)cnc45)CC3)Cc3ccccc32)ccn1` [Compound 41, 4-(3-{[1-(7-Aminopyrido[3,2-d]pyrimidin-4-yl)piperidin-4-yl]methyl}-2-oxo-3,4-dihydroquinazolin-1(2H)-yl)picolinonitrile], the inhibition at 1 µM in assay [1] (DLD-1, 18 h) amounted to 81%. The “Inhibition ratio (%) at 1 μmol/L” value in assay [2] was found to be 92%.

For the compound `COc1cc2ncnc(N3CCC(CN4Cc5ccccc5N(c5ccc(C(=O)O)c(C#N)c5)C4=O)CC3)c2cc1OC` [Compound 15, 2-Cyano-4-(3-{[1-(6,7-dimethoxyquinazolin-4-yl)piperidin-4-yl]methyl}-2-oxo-3,4-dihydroquinazolin-1(2H)-yl)benzoic acid], in assay [1] (setting [3]), the inhibition at 1 µM stood at 84%. In assay [2], the “Inhibition ratio (%) at 1 μmol/L” value was determined as 92%.

Turning to `COc1cc2ncnc(N3CCC(CN4Cc5cccnc5N(c5ccnc(C#N)c5)C4=O)CC3)c2cc1OC` [Compound 22, 4-(3-{[1-(6,7-Dimethoxyquinazolin-4-yl)piperidin-4-yl]methyl}-2-oxo-3,4-dihydropyrido[2,3-d]pyrimidin-1(2H)-yl)picolinonitrile], the inhibition at 1 µM in assay [1] (setting [3]) worked out at 75%. Further, the “Inhibition ratio (%) at 1 μmol/L” value in assay [2] is reported as 98%.

For `COc1cc2ncnc(N3CCC(CN4Cc5ccncc5N(c5ccnc(C#N)c5)C4=O)CC3)c2cc1OC` [Compound 21, 4-(3-{[1-(6,7-Dimethoxyquinazolin-4-yl)piperidin-4-yl]methyl}-2-oxo-3,4-dihydropyrido[3,4-d]pyrimidin-1(2H)-yl)picolinonitrile], the inhibition at 1 µM in assay [1] (setting [3]) is 76%. In addition, in assay [2], the “Inhibition ratio (%) at 1 μmol/L” value was 93%.
